Results as given in US10413535B2, “Pharmaceutical compositions comprising an integrin ALPHA4 antagonist for use in treating ocular inflammatory conditions” (AXEROVISION, INC., priority 2015, dated 2019).
Like-named read-outs stand apart in the source and are kept apart here.

Columns and labels:
α4β1-VCAM-1 = target: T1, α4β1-VCAM-1 (Homo sapiens, UniProt P05556+P13612); assay: VCAM cell adhesion assay, Jurkat J6 cells; format: cell-based; settings: J6 cells to VCAM-1; read-out: Inhibition of cell adhesion (IC50)
T1 construct: characterized in human J6 cells which express VLA-4; endogenous in cells; host or cells: Jurkat J6 cells (human lymphoblast cell line)
T1 sequence (P13612 34-1032): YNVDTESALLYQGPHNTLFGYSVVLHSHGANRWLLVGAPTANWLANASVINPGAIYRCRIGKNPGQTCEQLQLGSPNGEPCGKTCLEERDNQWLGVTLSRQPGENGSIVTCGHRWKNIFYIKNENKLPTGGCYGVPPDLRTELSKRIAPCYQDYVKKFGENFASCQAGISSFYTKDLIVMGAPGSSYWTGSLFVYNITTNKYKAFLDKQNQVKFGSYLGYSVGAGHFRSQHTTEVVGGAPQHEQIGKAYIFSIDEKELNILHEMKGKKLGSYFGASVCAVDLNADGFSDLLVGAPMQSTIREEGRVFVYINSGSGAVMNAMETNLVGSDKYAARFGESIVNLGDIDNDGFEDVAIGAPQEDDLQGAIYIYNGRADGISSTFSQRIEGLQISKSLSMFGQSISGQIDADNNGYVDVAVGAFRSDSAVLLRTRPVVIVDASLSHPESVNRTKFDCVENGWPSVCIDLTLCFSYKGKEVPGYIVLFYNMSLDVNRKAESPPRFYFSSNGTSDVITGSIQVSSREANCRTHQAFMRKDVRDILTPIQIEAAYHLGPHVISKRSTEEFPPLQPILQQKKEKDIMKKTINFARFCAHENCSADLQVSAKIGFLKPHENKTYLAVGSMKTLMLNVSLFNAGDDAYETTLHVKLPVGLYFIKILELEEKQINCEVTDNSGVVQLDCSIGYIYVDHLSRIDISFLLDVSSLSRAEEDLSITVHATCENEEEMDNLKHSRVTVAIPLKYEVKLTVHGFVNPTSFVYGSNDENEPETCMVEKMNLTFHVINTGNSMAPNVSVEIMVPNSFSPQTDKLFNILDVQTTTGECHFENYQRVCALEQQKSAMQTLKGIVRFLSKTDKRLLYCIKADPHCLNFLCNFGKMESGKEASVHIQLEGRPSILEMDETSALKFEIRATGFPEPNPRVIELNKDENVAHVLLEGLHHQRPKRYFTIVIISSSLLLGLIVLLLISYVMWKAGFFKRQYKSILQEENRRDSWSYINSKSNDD
T1 sequence (P05556 21-798): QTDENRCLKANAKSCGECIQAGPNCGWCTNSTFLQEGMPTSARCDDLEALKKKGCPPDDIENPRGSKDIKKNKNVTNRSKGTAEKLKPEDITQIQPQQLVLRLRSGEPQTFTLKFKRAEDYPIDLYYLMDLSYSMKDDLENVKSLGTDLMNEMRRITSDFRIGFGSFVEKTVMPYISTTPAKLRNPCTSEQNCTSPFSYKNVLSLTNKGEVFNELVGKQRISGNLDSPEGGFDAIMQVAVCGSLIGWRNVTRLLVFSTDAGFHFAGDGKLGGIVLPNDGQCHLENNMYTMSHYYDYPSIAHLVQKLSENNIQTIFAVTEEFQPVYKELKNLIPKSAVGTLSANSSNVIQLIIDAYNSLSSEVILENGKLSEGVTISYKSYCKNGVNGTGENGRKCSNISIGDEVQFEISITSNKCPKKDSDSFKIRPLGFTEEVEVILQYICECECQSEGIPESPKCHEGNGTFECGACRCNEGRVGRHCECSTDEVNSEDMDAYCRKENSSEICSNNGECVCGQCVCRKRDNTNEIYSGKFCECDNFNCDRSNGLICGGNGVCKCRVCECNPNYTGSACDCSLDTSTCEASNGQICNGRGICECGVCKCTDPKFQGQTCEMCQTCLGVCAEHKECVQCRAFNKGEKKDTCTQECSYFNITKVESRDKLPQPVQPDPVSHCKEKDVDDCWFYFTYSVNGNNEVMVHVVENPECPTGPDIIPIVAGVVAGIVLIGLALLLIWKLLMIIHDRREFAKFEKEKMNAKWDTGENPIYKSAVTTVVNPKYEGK
Procedure: Jurkat J6 cells (human lymphoblast cell line) were grown as a suspension culture in RPMI 1640 supplemented with FCS (10%) and glutamine (2 mM). RPMI8866 cells (human B lymphoid cell line) were grown as a suspension culture in RPMI 1640 supplemented with FCS (10%) and glutamine (2 mM). RBL-2H3 cells (rat basophilic cell line) were cultured in Eagle's MEM plus Earles salts supplemented with 2 mM L-glutamine, 1 mM sodium pyruvate, 1× non-essential amino acids, 1 mM Na pyruvate 10% heat inactivated foetal calf serum.
Polystyrene 96-well microtitre plates were coated with IgG at a concentration of 0.05 mg/mL in bicarbonate buffer for 2 hours at 37° C. The solution was aspirated and the plates washed twice with PBS. The plates were then incubated overnight at 4° C. with a 1:4000 dilution of VCAM-1 of 3% BSA in PBS. Prior to use the VCAM-1 was aspirated and the plates washed twice with PBS.
J6 or RPMI cells (as required) were labelled with the fluorescent dye BCECF-AM (10 μM and 6×10^6 cells/mL) for 10 min at 37° C. before the excess was removed by centrifugation at 500 g for 5 min and the cells resuspended at a cell concentration of 1.2×10^7 cells/mL in HBSS. Equal volumes HBSS containing the compound of formula I (over concentration range 38.1 pM to 10 μM) and cells were added to the VCAM-1 coated plates. […] The plates were counted in a Wallac Viktor.

[1] = Toxicokinetics in 13-week topical ocular rabbit study; settings: New Zealand White, in vivo, topical or ocular
Procedure: GW559090A was given to New Zealand White Rabbits by topical ocular administration for 13 weeks. Animals were dosed six or twelve times per day, with one hour between doses. Treatment groups were: (1) vehicle (12 times a day), (2) 30 mg/mL/occasion given six times a day, (3) 50 mg/mL/occasion given six times a day, or (4) 50 mg/mL/occasion, given 12 times a day.
GW559090A was formulated as a stock solution in 25 mM phosphate buffer with 0.5% sodium chloride to provide a 50 mg/mL stock solution, which was used for administration to Groups 3 or 4, or further diluted with 25 mM phosphate buffer with 0.75% sodium chloride to provide a 30 mg/mL solution for administration to Group 2. Control animals were treated with the vehicle for 50 mg/mL solution (25 mM phosphate buffer with 0.5% sodium chloride).
During the 13 week treatment period rabbits received daily topical ocular doses of GW559090A or vehicle at a constant dose volume of 0.06 mL (given 6 or 12 times a day, with one hour between doses). The test article formulation or vehicle was carefully dropped into the partially everted lower eyelid of the right eye from a suitable distance, to prevent contact of the positive displacement pipette with the eye. The lower and upper lids were then gently held together for approximately five seconds, to prevent loss of dose and aid even distribution across the external ocular surface. The un-dosed eye was not manipulated at any time and served as a within animal untreated control site.

[2] = female, 30 mg/mL/occasion, female rabbits, 30 mg/mL, 6 daily doses, Day 1, after the first daily dose
[3] = female, 30 mg/mL/occasion, female rabbits, 30 mg/mL, 6 daily doses, Week 4, after the first daily dose
[4] = female, 30 mg/mL/occasion, female rabbits, 30 mg/mL, 6 daily doses, Week 13, after the first daily dose
[5] = female, 50 mg/mL/occasion, female rabbits, 50 mg/mL, 6 daily doses, Day 1, after the first daily dose
[6] = female, 50 mg/mL/occasion, female rabbits, 50 mg/mL, 6 daily doses, Week 4, after the first daily dose
[7] = female, 50 mg/mL/occasion, female rabbits, 50 mg/mL, 6 daily doses, Week 13, after the first daily dose
[8] = female, 50 mg/mL/occasion, female rabbits, 50 mg/mL, 12 daily doses, Day 1, after the first daily dose
[9] = female, 50 mg/mL/occasion, female rabbits, 50 mg/mL, 12 daily doses, Week 4, after the first daily dose
[10] = female, 50 mg/mL/occasion, female rabbits, 50 mg/mL, 12 daily doses, Week 14, after the first daily dose
[11] = male, 30 mg/mL/occasion, male rabbits, 30 mg/mL, 6 daily doses, Day 1, after the first daily dose
[12] = male, 30 mg/mL/occasion, male rabbits, 30 mg/mL, 6 daily doses, Week 4, after the first daily dose
[13] = male, 30 mg/mL/occasion, male rabbits, 30 mg/mL, 6 daily doses, Week 13, after the first daily dose
[14] = male, 50 mg/mL/occasion, male rabbits, 50 mg/mL, 6 daily doses, Day 1, after the first daily dose
[15] = male, 50 mg/mL/occasion, male rabbits, 50 mg/mL, 6 daily doses, Week 4, after the first daily dose
[16] = male, 50 mg/mL/occasion, male rabbits, 50 mg/mL, 6 daily doses, Week 13, after the first daily dose
[17] = male, 50 mg/mL/occasion, male rabbits, 50 mg/mL, 12 daily doses, Day 1, after the first daily dose
[18] = male, 50 mg/mL/occasion, male rabbits, 50 mg/mL, 12 daily doses, Week 4, after the first daily dose
[19] = male, 50 mg/mL/occasion, male rabbits, 50 mg/mL, 12 daily doses, Week 14, after the first daily dose

Cc1ccccc1OCC(=O)N[C@@H](CC(C)C)C(=O)N[C@@H](Cc1ccc(OC(=O)N2CCC(C(N)=O)CC2)cc1)C(=O)O [GW559090, (2S)-3-[4-({[4-(Aminocarbonyl)-1-piperidinyl]carbonyl}oxy)phenyl]-2-[((2S)-4-methyl-2-{[2-(2-methylphenoxy)acetyl]amino}pentanoyl)amino]propanoic acid]
IC50 (α4β1-VCAM-1): 7.72 nM
Cmax [1, 2]: 16 ng/mL
Tmax [1, 2]: 4.98 min
AUC(0-t) ([1]; female, 30 mg/mL/occasion, female rabbits, 30 mg/mL, 6 daily doses, Day 1, read-out: AUC0-1): 4.19 ng·h/mL
AUC(0-t) ([1]; female, 30 mg/mL/occasion, female rabbits, 30 mg/mL, 6 daily doses, Day 1, read-out: AUC0-24): 25.1 ng·h/mL
Cmax [1, 3]: 32.4 ng/mL
Tmax [1, 3]: 4.98 min
AUC(0-t) ([1]; female, 30 mg/mL/occasion, female rabbits, 30 mg/mL, 6 daily doses, Week 4, read-out: AUC0-1): 10.6 ng·h/mL
AUC(0-t) ([1]; female, 30 mg/mL/occasion, female rabbits, 30 mg/mL, 6 daily doses, Week 4, read-out: AUC0-24): 63.6 ng·h/mL
Cmax [1, 4]: 23.5 ng/mL
Tmax [1, 4]: 15 min
AUC(0-t) ([1]; female, 30 mg/mL/occasion, female rabbits, 30 mg/mL, 6 daily doses, Week 13, read-out: AUC0-1): 9.83 ng·h/mL
AUC(0-t) ([1]; female, 30 mg/mL/occasion, female rabbits, 30 mg/mL, 6 daily doses, Week 13, read-out: AUC0-24): 59 ng·h/mL
Cmax [1, 5]: 67.8 ng/mL
Tmax [1, 5]: 4.98 min
AUC(0-t) ([1]; female, 50 mg/mL/occasion, female rabbits, 50 mg/mL, 6 daily doses, Day 1, read-out: AUC0-1): 11 ng·h/mL
AUC(0-t) ([1]; female, 50 mg/mL/occasion, female rabbits, 50 mg/mL, 6 daily doses, Day 1, read-out: AUC0-24): 66 ng·h/mL
Cmax [1, 6]: 44.4 ng/mL
Tmax [1, 6]: 4.98 min
AUC(0-t) ([1]; female, 50 mg/mL/occasion, female rabbits, 50 mg/mL, 6 daily doses, Week 4, read-out: AUC0-1): 12.6 ng·h/mL
AUC(0-t) ([1]; female, 50 mg/mL/occasion, female rabbits, 50 mg/mL, 6 daily doses, Week 4, read-out: AUC0-24): 75.6 ng·h/mL
Cmax [1, 7]: 49.7 ng/mL
Tmax [1, 7]: 4.98 min
AUC(0-t) ([1]; female, 50 mg/mL/occasion, female rabbits, 50 mg/mL, 6 daily doses, Week 13, read-out: AUC0-1): 15.7 ng·h/mL
AUC(0-t) ([1]; female, 50 mg/mL/occasion, female rabbits, 50 mg/mL, 6 daily doses, Week 13, read-out: AUC0-24): 94.2 ng·h/mL
Cmax [1, 8]: 30.6 ng/mL
Tmax [1, 8]: 4.98 min
AUC(0-t) ([1]; female, 50 mg/mL/occasion, female rabbits, 50 mg/mL, 12 daily doses, Day 1, read-out: AUC0-1): 7.3 ng·h/mL
AUC(0-t) ([1]; female, 50 mg/mL/occasion, female rabbits, 50 mg/mL, 12 daily doses, Day 1, read-out: AUC0-24): 87.6 ng·h/mL
Cmax [1, 9]: 56.6 ng/mL
Tmax [1, 9]: 4.98 min
AUC(0-t) ([1]; female, 50 mg/mL/occasion, female rabbits, 50 mg/mL, 12 daily doses, Week 4, read-out: AUC0-1): 13.1 ng·h/mL
AUC(0-t) ([1]; female, 50 mg/mL/occasion, female rabbits, 50 mg/mL, 12 daily doses, Week 4, read-out: AUC0-24): 157 ng·h/mL
Cmax [1, 10]: 68 ng/mL
Tmax [1, 10]: 4.98 min
AUC(0-t) ([1]; female, 50 mg/mL/occasion, female rabbits, 50 mg/mL, 12 daily doses, Week 14, read-out: AUC0-1): 35.5 ng·h/mL
AUC(0-t) ([1]; female, 50 mg/mL/occasion, female rabbits, 50 mg/mL, 12 daily doses, Week 14, read-out: AUC0-24): 426 ng·h/mL
Cmax [1, 11]: 30.8 ng/mL
Tmax [1, 11]: 4.98 min
AUC(0-t) ([1]; male, 30 mg/mL/occasion, male rabbits, 30 mg/mL, 6 daily doses, Day 1, read-out: AUC0-1): 7.86 ng·h/mL
AUC(0-t) ([1]; male, 30 mg/mL/occasion, male rabbits, 30 mg/mL, 6 daily doses, Day 1, read-out: AUC0-24): 47.2 ng·h/mL
Cmax [1, 12]: 51.4 ng/mL
Tmax [1, 12]: 4.98 min
AUC(0-t) ([1]; male, 30 mg/mL/occasion, male rabbits, 30 mg/mL, 6 daily doses, Week 4, read-out: AUC0-1): 9.23 ng·h/mL
AUC(0-t) ([1]; male, 30 mg/mL/occasion, male rabbits, 30 mg/mL, 6 daily doses, Week 4, read-out: AUC0-24): 55.4 ng·h/mL
Cmax [1, 13]: 11.8 ng/mL
Tmax [1, 13]: 4.98 min
AUC(0-t) ([1]; male, 30 mg/mL/occasion, male rabbits, 30 mg/mL, 6 daily doses, Week 13, read-out: AUC0-1): 9.1 ng·h/mL
AUC(0-t) ([1]; male, 30 mg/mL/occasion, male rabbits, 30 mg/mL, 6 daily doses, Week 13, read-out: AUC0-24): 54.6 ng·h/mL
Cmax [1, 14]: 105 ng/mL
Tmax [1, 14]: 4.98 min
AUC(0-t) ([1]; male, 50 mg/mL/occasion, male rabbits, 50 mg/mL, 6 daily doses, Day 1, read-out: AUC0-1): 14.4 ng·h/mL
AUC(0-t) ([1]; male, 50 mg/mL/occasion, male rabbits, 50 mg/mL, 6 daily doses, Day 1, read-out: AUC0-24): 86.4 ng·h/mL
Cmax [1, 15]: 80.4 ng/mL
Tmax [1, 15]: 4.98 min
AUC(0-t) ([1]; male, 50 mg/mL/occasion, male rabbits, 50 mg/mL, 6 daily doses, Week 4, read-out: AUC0-1): 17.9 ng·h/mL
AUC(0-t) ([1]; male, 50 mg/mL/occasion, male rabbits, 50 mg/mL, 6 daily doses, Week 4, read-out: AUC0-24): 107 ng·h/mL
Cmax [1, 16]: 32.2 ng/mL
Tmax [1, 16]: 4.98 min
AUC(0-t) ([1]; male, 50 mg/mL/occasion, male rabbits, 50 mg/mL, 6 daily doses, Week 13, read-out: AUC0-1): 17.6 ng·h/mL
AUC(0-t) ([1]; male, 50 mg/mL/occasion, male rabbits, 50 mg/mL, 6 daily doses, Week 13, read-out: AUC0-24): 106 ng·h/mL
Cmax [1, 17]: 66.3 ng/mL
Tmax [1, 17]: 4.98 min
AUC(0-t) ([1]; male, 50 mg/mL/occasion, male rabbits, 50 mg/mL, 12 daily doses, Day 1, read-out: AUC0-1): 12.1 ng·h/mL
AUC(0-t) ([1]; male, 50 mg/mL/occasion, male rabbits, 50 mg/mL, 12 daily doses, Day 1, read-out: AUC0-24): 145 ng·h/mL
Cmax [1, 18]: 41.4 ng/mL
Tmax [1, 18]: 4.98 min
AUC(0-t) ([1]; male, 50 mg/mL/occasion, male rabbits, 50 mg/mL, 12 daily doses, Week 4, read-out: AUC0-1): 11.6 ng·h/mL
AUC(0-t) ([1]; male, 50 mg/mL/occasion, male rabbits, 50 mg/mL, 12 daily doses, Week 4, read-out: AUC0-24): 139 ng·h/mL
Cmax [1, 19]: 38.1 ng/mL
Tmax [1, 19]: 30 min
AUC(0-t) ([1]; male, 50 mg/mL/occasion, male rabbits, 50 mg/mL, 12 daily doses, Week 14, read-out: AUC0-1): 19.6 ng·h/mL
AUC(0-t) ([1]; male, 50 mg/mL/occasion, male rabbits, 50 mg/mL, 12 daily doses, Week 14, read-out: AUC0-24): 235 ng·h/mL
